In article PMC10930102 (Journal of Enzyme Inhibition and Medicinal Chemistry, 2024):
Where two headings read alike, the source gives them in different places.

Assays:
IGF1R = biological target: T1, IGF1R (Homo sapiens, UniProt P08069); set-up: method as in PMID 22734674; settings: cited from earlier work
T1 construct: purchased Reaction Biology Corporation

c-Src = biological target: T2, c-Src (Homo sapiens, UniProt P12931); set-up: method as in PMID 22734674; settings: cited from earlier work
T2 construct: purchased Reaction Biology Corporation

HDAC11 = biological target: T3, HDAC11 (Homo sapiens, UniProt Q96DB2); test: HDAC inhibition assay (fluorogenic peptide, Reaction Biology); format: biochemical; settings: tested once, ten-dose starting at 30 µM
T3 construct: purchased Reaction Biology Corporation; host or cells: baculovirus expression system in SF9 cells
T3 sequence (Q96DB2 1-347): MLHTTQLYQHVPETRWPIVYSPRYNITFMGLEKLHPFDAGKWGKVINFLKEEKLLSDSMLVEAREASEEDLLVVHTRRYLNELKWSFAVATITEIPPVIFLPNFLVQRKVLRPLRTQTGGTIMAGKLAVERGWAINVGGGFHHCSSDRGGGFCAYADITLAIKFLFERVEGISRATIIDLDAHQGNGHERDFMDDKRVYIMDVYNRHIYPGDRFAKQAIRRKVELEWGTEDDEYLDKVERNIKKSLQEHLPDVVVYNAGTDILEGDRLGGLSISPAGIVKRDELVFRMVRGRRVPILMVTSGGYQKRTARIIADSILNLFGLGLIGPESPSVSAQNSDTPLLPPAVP

HDAC6 = biological target: T4, HDAC6 (Homo sapiens, UniProt Q9UBN7); test: as above; format: biochemical; settings: tested once, ten-dose starting at 30 µM
T4 construct: purchased Reaction Biology Corporation; host or cells: baculovirus expression system in SF9 cells
T4 sequence (Q9UBN7 1-1215): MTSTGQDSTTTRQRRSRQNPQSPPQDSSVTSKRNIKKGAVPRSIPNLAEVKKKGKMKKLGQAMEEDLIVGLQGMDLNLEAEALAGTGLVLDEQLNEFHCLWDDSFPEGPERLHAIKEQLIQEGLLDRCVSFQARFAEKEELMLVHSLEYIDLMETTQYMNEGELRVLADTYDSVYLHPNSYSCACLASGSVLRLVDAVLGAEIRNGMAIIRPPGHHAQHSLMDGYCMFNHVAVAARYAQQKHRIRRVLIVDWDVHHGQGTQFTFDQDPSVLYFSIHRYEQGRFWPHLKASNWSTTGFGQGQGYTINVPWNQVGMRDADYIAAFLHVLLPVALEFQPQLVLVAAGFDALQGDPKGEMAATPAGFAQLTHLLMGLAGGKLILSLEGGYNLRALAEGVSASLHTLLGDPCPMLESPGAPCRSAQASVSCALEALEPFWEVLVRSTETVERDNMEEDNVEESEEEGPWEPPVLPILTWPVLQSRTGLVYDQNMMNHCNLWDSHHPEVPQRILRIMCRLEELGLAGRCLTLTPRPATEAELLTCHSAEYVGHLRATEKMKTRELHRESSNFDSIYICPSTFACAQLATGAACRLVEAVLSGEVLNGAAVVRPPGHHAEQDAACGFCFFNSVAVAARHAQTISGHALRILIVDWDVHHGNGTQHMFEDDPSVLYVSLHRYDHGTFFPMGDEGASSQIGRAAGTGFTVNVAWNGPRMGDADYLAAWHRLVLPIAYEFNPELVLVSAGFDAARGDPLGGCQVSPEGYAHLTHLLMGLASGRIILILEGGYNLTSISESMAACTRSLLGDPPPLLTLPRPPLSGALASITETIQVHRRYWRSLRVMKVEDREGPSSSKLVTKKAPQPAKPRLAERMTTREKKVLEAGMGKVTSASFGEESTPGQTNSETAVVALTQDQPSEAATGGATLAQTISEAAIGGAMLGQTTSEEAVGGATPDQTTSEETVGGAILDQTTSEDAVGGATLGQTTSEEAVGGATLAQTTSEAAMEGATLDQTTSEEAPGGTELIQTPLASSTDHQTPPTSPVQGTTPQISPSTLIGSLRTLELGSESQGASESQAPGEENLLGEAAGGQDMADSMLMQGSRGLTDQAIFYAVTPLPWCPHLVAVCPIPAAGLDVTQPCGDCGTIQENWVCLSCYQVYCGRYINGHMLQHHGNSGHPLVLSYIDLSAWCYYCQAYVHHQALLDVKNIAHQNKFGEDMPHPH

HDAC8 = biological target: T5, HDAC8 (Homo sapiens, UniProt Q9BY41); test: HDAC inhibition assay (fluorogenic diacylpeptide, Reaction Biology); format: biochemical; settings: tested once, ten-dose starting at 30 µM
T5 construct: purchased Reaction Biology Corporation; host or cells: baculovirus expression system in SF9 cells
T5 sequence (Q9BY41 1-377): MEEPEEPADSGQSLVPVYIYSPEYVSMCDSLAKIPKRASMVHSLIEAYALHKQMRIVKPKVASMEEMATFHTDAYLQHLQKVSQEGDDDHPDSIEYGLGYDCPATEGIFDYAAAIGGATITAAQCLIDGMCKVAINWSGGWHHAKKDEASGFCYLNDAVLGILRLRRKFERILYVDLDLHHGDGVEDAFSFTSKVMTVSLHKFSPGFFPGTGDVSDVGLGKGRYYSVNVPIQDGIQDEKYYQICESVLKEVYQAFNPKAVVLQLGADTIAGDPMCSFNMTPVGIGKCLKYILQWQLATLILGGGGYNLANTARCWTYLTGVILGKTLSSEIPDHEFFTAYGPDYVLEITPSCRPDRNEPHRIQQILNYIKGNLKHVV

ALK = biological target: T6, ALK (Homo sapiens, UniProt Q9UM73); test: ALK in vitro enzymatic assay (radioisotope P81 filter-binding, Reaction Biology); format: biochemical
T6 construct: purchased Reaction Biology Corporation

HDAC1 = biological target: T7, HDAC1 (Homo sapiens, UniProt Q13547); test: HDAC inhibition assay (fluorogenic peptide, Reaction Biology); format: biochemical; settings: tested once, ten-dose starting at 30 µM
T7 construct: purchased Reaction Biology Corporation; host or cells: baculovirus expression system in SF9 cells

[1] = system: phosphorylation level of Y1604 on ALK; test: Western blot of ALK phosphorylation in H2228 cells; format: cell-based, human; settings: 6 h, 3b 2 µM, 3c 4 µM
Description: (§1) Figure 4. Effect of test compounds on H2228 cells. […] (A) Western blots of phosphorylated tyrosine residue 1640 on ALK as well as acetylated (Ac) α-tubulin and histone H3 with their corresponding total proteins for normalisation. GAPDH was used as a loading control. (B) Quantification of western blotting results using Image J. Error bars indicate ± S.D.E. *p-Value ≤ 0.05, **p-value ≤ 0.01, ***p-value ≤ 0.001.
(§2) Treated cells were washed three times with ice-cold phosphate-buffered saline and lysed in lysis buffer containing 100 mM Tris-HCl, 12 mM sodium deoxycholate, 12 mM sodium lauroylsarcosinate, and protease inhibitor cocktail (BioTools). Cells were heated in lysis buffer at 95 °C for 5 min and then the cell membrane was broken up by sonication (Bioruptor). Cellular debris and unbroken cells were removed by centrifugation (12,500 × g for 30 min, 4 °C). Protein concentration was determined using the bicinchoninic acid assay (Thermo). Cell extracts (20 μg) were resolved by 12% sodium dodecyl sulfate-polyacrylamide gel electrophoresis (SDS-PAGE), transferred to PVDF membranes, and probed separately with antibodies for Ac-histone H3, Ac-α-tubulin, histone H3, α-tubulin, HDAC1, HDAC6, HDAC8 and GAPDH. The antibodies of GAPDH, HDAC1, and HDAC8 were purchased from ABclonal and all other antibodies were from Cell Signalling Technology. Antibody signals were detected using an enhanced chemiluminescence system.

MCF7 = test: SRB antiproliferation assay; format: cell-based; settings: Homo sapiens, 48 h, read-out: Antiproliferative activity (IC50) MCF7
A549 = test: SRB antiproliferation assay; format: cell-based; settings: Homo sapiens, 48 h, read-out: Antiproliferative activity (IC50) A549
[2] = system: protein expression level of HDAC1, HDAC6, or HDAC8; test: Western blot of HDAC protein expression; format: cell-based, human; settings: western blot after treatment (supplemental Figure S3)
Experimental: as §2
Figure S3. Western blots of HDAC1, HDAC6, and HDAC8 after drug treatment and vehicle control
activity was assessed by MTS assay, and the concentration of inhibitors was determined to be half of their
was tested five times, and the results were normalized to 1. (blank) […]

H2228 = test: SRB antiproliferation assay; format: cell-based; settings: Homo sapiens, NCI-H2228, 48 h, ALK-addicted cells, read-out: Antiproliferative activity (IC50) H2228
U87MG = test: SRB antiproliferation assay; format: cell-based; settings: Homo sapiens, U-87 MG, 48 h, read-out: Antiproliferative activity (IC50) U87MG
CYP1A2 = biological target: T8, CYP1A2 (Homo sapiens, UniProt P05177); test: CYP450 inhibition assay; format: in vitro ADME; settings: human recombinant enzyme
T8 construct: purchased Reaction Biology Corporation; host or cells: CYP cDNA baculovirus expression systems

CYP2C19 = biological target: T9, CYP2C19 (Homo sapiens, UniProt P33261); test: CYP450 inhibition assay; format: in vitro ADME; settings: human recombinant enzyme
T9 construct: purchased Reaction Biology Corporation; host or cells: CYP cDNA baculovirus expression systems
Experimental: Assays were performed by Reaction Biology Corporation. […] CYP assays used human recombinant CYP1A2, CYP2C9, CYP2C19, CYP2D6, and CYP3A4 expressed in CYP cDNA baculovirus expression systems. […] Substrates used were 3-cyano-7-ethoxycoumarin for CYP1A2, 2C19, and 2D6; Vivid OOMR Substrate for CYP2C9; and Vivid BOMR Substrate for CYP3A4. hERG inhibition assays involved a binding competition between the tested compounds and a fluorescently labelled compound tracer (Predictor hERG Tracer Red) for membrane-bound hERG (Predictor hERG Membrane). E-4031 served as the positive control.

[3] = system: acetylated histone H3, a substrate of class I HDAC; test: Western blot of acetylated histone H3 in H2228 cells; format: cell-based, human; settings: 6 h, 3b 2 µM
Description: as §1
as §2, with “The antibodies of GAPDH, HDAC1, and HDAC8 were purchased from ABclonal and all other antibodies were from Cell Signalling Technology.” left out

[4] = 20 μM ATP, ten-dose IC50 mode, duplicate, average

T7 sequence (Q13547 whole entry): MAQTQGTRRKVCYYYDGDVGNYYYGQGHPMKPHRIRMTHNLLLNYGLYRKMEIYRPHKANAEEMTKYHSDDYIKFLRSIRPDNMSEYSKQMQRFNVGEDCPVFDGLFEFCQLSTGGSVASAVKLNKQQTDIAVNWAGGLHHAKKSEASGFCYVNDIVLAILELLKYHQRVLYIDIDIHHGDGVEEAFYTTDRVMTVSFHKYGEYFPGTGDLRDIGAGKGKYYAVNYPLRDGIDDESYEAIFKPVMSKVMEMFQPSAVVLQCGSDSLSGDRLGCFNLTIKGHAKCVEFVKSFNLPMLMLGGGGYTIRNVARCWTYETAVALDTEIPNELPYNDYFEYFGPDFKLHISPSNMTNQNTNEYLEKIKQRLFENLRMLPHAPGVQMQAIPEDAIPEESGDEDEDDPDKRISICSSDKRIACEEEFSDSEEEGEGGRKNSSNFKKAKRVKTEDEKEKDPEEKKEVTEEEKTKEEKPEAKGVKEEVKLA
T6 sequence (Q9UM73 19-1620): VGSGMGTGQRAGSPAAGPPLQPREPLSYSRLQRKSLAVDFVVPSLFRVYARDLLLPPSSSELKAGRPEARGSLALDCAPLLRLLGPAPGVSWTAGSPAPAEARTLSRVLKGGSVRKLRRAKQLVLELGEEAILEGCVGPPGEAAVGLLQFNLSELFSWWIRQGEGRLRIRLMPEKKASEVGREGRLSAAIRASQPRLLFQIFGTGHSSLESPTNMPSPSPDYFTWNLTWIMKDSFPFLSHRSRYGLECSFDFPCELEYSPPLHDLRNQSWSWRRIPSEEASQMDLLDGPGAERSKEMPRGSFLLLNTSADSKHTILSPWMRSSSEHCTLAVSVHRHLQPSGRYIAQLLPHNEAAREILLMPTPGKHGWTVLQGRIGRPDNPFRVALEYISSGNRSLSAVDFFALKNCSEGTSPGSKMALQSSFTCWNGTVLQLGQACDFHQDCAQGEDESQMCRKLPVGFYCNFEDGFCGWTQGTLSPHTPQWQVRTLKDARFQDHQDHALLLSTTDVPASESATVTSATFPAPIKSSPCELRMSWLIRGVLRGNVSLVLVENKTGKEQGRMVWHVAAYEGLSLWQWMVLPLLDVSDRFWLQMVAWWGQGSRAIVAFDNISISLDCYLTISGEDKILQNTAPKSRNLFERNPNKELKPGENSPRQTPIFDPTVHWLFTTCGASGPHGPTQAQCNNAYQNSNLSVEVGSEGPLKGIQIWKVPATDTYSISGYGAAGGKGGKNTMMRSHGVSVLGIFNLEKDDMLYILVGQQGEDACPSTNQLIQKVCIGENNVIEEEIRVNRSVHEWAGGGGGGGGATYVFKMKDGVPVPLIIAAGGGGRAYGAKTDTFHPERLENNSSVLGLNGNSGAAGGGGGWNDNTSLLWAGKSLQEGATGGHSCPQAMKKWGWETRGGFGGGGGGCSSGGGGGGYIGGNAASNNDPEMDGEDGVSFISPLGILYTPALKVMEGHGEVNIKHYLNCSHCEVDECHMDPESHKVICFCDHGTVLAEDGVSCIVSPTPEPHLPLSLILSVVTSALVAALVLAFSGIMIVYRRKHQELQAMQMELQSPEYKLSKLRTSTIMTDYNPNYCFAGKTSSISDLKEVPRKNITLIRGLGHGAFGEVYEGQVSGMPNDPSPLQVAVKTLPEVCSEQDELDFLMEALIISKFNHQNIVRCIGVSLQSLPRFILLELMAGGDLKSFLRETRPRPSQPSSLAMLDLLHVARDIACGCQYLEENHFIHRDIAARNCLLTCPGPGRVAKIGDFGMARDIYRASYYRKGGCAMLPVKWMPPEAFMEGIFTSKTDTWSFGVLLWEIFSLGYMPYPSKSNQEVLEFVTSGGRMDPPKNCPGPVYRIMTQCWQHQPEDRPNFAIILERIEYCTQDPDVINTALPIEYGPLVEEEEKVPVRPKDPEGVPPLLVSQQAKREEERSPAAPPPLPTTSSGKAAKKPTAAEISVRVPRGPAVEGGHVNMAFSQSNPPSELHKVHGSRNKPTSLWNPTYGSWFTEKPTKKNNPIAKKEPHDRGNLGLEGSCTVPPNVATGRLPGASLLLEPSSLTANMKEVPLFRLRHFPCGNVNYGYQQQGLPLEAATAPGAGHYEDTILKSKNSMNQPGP
T1 sequence (P08069 31-1367): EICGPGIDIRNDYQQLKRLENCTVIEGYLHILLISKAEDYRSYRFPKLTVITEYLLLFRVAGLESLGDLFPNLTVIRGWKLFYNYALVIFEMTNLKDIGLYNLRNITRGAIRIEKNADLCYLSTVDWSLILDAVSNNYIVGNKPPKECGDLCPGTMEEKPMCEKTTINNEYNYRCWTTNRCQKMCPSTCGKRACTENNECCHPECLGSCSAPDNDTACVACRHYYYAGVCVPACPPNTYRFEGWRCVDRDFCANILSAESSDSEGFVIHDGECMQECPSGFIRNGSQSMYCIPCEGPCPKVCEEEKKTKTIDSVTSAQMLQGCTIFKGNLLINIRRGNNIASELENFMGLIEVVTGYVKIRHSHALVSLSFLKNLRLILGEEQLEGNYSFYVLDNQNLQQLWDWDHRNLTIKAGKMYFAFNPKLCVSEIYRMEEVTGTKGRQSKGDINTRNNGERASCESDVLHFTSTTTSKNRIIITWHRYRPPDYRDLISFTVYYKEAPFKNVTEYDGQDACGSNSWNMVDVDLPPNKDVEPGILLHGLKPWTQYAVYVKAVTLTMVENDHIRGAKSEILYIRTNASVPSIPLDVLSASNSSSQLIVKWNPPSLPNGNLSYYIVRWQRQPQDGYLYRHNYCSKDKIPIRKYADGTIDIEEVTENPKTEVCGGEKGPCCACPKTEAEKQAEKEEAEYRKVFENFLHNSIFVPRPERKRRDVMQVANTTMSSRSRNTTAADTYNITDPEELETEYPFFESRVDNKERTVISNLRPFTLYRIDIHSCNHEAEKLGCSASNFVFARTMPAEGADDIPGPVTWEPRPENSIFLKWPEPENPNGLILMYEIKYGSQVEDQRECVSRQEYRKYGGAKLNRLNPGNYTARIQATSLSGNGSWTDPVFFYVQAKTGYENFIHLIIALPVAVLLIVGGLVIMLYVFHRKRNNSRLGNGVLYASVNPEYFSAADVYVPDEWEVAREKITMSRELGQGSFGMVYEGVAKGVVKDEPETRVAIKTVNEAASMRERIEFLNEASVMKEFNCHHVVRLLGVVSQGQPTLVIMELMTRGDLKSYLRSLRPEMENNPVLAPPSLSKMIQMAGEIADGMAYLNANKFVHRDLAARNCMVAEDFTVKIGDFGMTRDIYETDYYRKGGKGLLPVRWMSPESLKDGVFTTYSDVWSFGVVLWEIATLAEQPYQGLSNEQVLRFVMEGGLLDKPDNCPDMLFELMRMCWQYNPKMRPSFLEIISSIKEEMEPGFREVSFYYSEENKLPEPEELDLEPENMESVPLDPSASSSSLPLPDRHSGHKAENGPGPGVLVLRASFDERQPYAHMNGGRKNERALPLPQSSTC
T9 sequence (P33261 whole entry): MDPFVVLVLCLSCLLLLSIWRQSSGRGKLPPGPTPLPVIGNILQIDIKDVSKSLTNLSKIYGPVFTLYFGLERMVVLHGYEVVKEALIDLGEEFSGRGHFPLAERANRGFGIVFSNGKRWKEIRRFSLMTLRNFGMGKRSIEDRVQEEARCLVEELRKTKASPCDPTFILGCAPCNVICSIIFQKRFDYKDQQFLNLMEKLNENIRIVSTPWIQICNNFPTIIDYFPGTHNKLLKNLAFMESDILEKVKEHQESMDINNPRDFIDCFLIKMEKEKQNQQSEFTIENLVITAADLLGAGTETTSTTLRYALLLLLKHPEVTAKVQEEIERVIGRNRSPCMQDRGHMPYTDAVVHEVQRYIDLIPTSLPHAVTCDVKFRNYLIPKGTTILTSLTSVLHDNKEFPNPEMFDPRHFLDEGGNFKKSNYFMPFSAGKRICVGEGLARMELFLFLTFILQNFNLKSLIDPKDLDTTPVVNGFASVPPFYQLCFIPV
T2 sequence (P12931 whole entry): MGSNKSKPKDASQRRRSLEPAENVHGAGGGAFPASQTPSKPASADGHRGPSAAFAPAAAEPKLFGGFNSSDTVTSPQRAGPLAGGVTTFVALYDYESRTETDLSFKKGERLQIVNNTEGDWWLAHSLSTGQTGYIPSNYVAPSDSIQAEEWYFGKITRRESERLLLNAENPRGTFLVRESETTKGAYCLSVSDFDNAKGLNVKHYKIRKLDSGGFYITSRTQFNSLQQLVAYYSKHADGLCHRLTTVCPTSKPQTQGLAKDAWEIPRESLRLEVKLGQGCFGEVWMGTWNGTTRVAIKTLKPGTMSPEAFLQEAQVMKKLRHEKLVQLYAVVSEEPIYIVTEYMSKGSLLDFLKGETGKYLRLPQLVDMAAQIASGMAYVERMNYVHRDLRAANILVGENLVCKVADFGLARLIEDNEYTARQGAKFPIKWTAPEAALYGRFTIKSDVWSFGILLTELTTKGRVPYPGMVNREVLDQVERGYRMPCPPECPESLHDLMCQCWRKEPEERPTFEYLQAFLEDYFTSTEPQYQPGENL
T8 sequence (P05177 whole entry): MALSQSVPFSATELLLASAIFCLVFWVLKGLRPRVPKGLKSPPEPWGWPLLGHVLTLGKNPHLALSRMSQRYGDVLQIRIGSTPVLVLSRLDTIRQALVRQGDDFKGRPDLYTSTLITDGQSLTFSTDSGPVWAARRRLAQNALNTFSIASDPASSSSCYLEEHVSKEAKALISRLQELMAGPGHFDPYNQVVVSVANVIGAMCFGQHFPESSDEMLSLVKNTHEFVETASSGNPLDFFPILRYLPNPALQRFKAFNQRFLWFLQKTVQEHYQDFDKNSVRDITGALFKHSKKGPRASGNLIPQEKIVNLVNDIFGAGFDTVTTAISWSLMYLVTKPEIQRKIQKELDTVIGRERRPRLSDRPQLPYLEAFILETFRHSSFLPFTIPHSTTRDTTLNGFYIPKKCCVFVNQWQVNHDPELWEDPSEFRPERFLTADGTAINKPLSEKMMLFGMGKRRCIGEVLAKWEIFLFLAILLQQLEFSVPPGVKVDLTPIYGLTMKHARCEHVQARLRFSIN

| IC50 (HDAC11) [nM] | IC50 (HDAC6) [nM] | IC50 (HDAC8) [nM] | IC50 (ALK; [4]) [nM] | IC50 (HDAC1) [nM] | IC50 (H2228) [nM] | Structure (SMILES) | also measured |
| --- | --- | --- | --- | --- | --- | --- | --- |
| – | – | – | – | – | – | CC(C)NC(=O)[C@H]1CC[C@@H](n2/c(=N/C(=O)c3cc(F)cc(F)c3)[nH]c3ccc(CN4CCC(C(C)(C)O)CC4)cc32)CC1 [Compound 1] | IC50 (IGF1R): 100 nM; IC50 (c-Src): 420 nM |
| 9350 | 810 | 2950 | 5750 | 6180 | – | CC(C)NC(=O)CCCn1/c(=N/C(=O)c2ccccc2)[nH]c2cc(/C=C/C(=O)NO)ccc21 [Compound 3a, (E)-N-(5-((E)-3-(Hydroxyamino)-3-oxoprop-1-en-1-yl)-1–(4-(isopropylamino)-4-oxobutyl)-1H-benzo[d]imidazol-2(3H)-ylidene)benzamide] | – |
| > 30000 | 2340 | 2870 | 5.2 | > 30000 | 210 ± 70 | CC(C)NC(=O)[C@H]1CC[C@@H](n2/c(=N/C(=O)c3ccccc3)[nH]c3ccc(/C=C/C(=O)NO)cc32)CC1 [Compound 3c, (E)-N-(6-((E)-3-(Hydroxyamino)-3-oxoprop-1-en-1-yl)-1-((1S,4S)-4-(isopropylcarbamoyl)cyclohexyl)-1H-benzo[d]imidazol-2(3H)-ylidene)benzamide] | phosphorylation level of Y1604 on ALK [1]: significantly decreased; IC50 (MCF7): 980 ± 30 nM; IC50 (A549): 7260 ± 2660 nM; protein expression level of HDAC1, HDAC6, or HDAC8 [2]: not perturbed; IC50 (ALK): 15 nM; fold greater ALK inhibition ability (ALK; hydroxamate moved from C-5 to C-6 position (versus 3b)): 3 fold; IC50 (U87MG): 11100 ± 810 nM |
| > 30000 | 2470 | 7770 | 3730 | > 30000 | – | CC(C)NC(=O)CCCn1/c(=N/C(=O)c2cc(F)cc(F)c2)[nH]c2cc(/C=C/C(=O)NO)ccc21 [Compound 3d, (E)-3,5-Difluoro-N-(5-((E)-3-(hydroxyamino)-3-oxoprop-1-en-1-yl)-1–(4-(isopropylamino)-4-oxobutyl)-1H-benzo[d]imidazol-2(3H)-ylidene)benzamide] | – |
| 1420 | 210 | 1780 | > 10000 | 840 | – | CCCC(=O)/N=c1\[nH]c2cc(/C=C/C(=O)NO)ccc2n1CCCC(=O)NC(C)C [Compound 3e, 4-((E)-2-(butyrylimino)-5-((E)-3-(hydroxyamino)-3-oxoprop-1-en-1-yl)-2,3-dihydro-1H-benzo[d]imidazol-1-yl)-N-isopropylbutanamide] | – |
| 1720 | 100 | 2520 | 15 | 2290 | – | CC(C)NC(=O)[C@H]1CC[C@@H](n2/c(=N/C(=O)c3ccccc3)[nH]c3cc(NC(=O)CCCCCCC(=O)NO)ccc32)CC1 [Compound 3f] | – |
| – | – | – | – | – | – | CC(C)NC(=O)CCCn1/c(=N/C(=O)c2ccccc2)[nH]c2cc(Br)ccc21 [Compound 6, (E)-N-(5-Bromo-1–(4-(isopropylamino)-4-oxobutyl)-1H-benzo[d]imidazol-2(3H)-ylidene)benzamide] | inhibition at 10 µM (ALK; single dose at 10 μM, duplicate, average, read-out: ALK relative inhibition of enzymatic activity): 18.8% |
| – | – | – | – | – | 130 ± 50 | C[C@@H](Oc1cc(-c2cnn(C3CCNCC3)c2)cnc1N)c1c(Cl)ccc(F)c1Cl [Crizotinib, reference compound] | IC50 (MCF7): 95 ± 24 nM; IC50 (U87MG): 48 ± 8 nM |
| – | – | – | – | – | – | CC(=O)N1CCN(c2ccc(OCC3COC(Cn4ccnc4)(c4ccc(Cl)cc4Cl)O3)cc2)CC1 (centres unmarked) [Ketoconazole, reference compound] | IC50 (CYP1A2): 590 nM; IC50 (CYP2C19): 1300 nM |
| – | – | – | – | – | 690 ± 50 | CCCCc1nc2cc(/C=C/C(=O)NO)ccc2n1CCN(CC)CC [Pracinostat (2), Pracinostat, reference compound] | phosphorylation level of Y1604 on ALK [1]: enhanced the ALK kinase activity; acetylated histone H3 level [3]: highest level of acetylated histone |
